Consider 8 compounds from patent US20260015350A1, “AZAQUINAZOLINE PAN-KRAS INHIBITORS” (Mirati Therapeutics, Inc., priority 2022, published 2026).

The subject of test [1] is KRas-mediated phosphorylation of ERK in PSN1 cells. The test is described as follows: Inhibition of KRas-mediated phosphorylation of ERK (Cisbio HTRF pERK), PSN1 cells. It is filed as cell-based. The settings on record: Homo sapiens. Summed up: (§1)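 Overnight culture at 37° C./5% CO2 in RPMI containing 10% FBS, seeded 6,000 cells per well, preceded the assay. A covered 4-hour incubation at room temperature followed, then HTRF signal for phosphorylated ERK was measured.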
A general note: Time-resolved FRET reads energy transfer from a long-lived donor to a nearby acceptor.

The target in the next test is T1, KRas^G12D (Homo sapiens, UniProt P01116, G12D).
T1 construct: Biotinylated KRas (corresponding to amino acids 1-169, produced at Accelegan Inc.); biotin (biotinylated); purchased Accelegan Inc
T1 sequence (P01116 1-169 isoform P01116-2 G12D): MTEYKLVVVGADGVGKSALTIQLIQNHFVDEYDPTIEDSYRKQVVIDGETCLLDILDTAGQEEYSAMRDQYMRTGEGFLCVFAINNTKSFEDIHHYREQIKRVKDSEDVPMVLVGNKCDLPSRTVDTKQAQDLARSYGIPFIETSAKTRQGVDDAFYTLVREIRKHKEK
The test is described as follows: KRas binding assay (TR-FRET tracer displacement), KRas G12D.

For test [2], the system named is KRas-mediated phosphorylation of ERK in AsPC-1 cells. The test is described as follows: Inhibition of KRas-mediated phosphorylation of ERK (Cisbio HTRF pERK), AsPC-1 cells. The format is cell-based. To be noted: Homo sapiens, ASPC1, AsPC-1 cells; HTRF pERK. Summed up:
(§2)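 Cells were seeded at 6,000 per well and treated for 3 hrs with compound in a 10-dose, 3-fold series from 10 uM (0.8% final DMSO), with 0.2 uM Trametinib as Min control. Lysates made at 4° C over 40 mins were incubated 2 hrs at room temperature with d2- and Cryptate-labelled antibodies, then read by HTRF.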

Another test has as its target T2, KRas^G12C (Homo sapiens, UniProt P01116, G12C).
T2 construct: Biotinylated KRas (corresponding to amino acids 1-169, produced at Accelegan Inc.); biotin (biotinylated); purchased Accelegan Inc
The test is described as follows: KRas binding assay (TR-FRET tracer displacement), KRas G12C. To be noted: TR-FRET tracer displacement, KRas G12C.

The subject of test [3] is KRas-mediated phosphorylation of ERK in H460 cells. The test is described as follows: Inhibition of KRas-mediated phosphorylation of ERK (Cisbio HTRF pERK), H460 cells. To be noted: Homo sapiens, NCI-H460, HTRF pERK. The format is cell-based. Summed up:
as §2

A further test addresses T3, KRas^G12S (Homo sapiens, UniProt P01116, G12S).
T3 construct: Biotinylated KRas (corresponding to amino acids 1-169, produced at Accelegan Inc.); biotin (biotinylated); purchased Accelegan Inc
The test is described as follows: KRas binding assay (TR-FRET tracer displacement), KRas G12S. To be noted: TR-FRET tracer displacement, KRas G12S.

Test [4] relates to KRas-mediated phosphorylation of ERK in A549 cells. The test is described as follows: Inhibition of KRas-mediated phosphorylation of ERK (Cisbio HTRF pERK), A549 cells. The format is cell-based. To be noted: Homo sapiens, HTRF pERK. Summed up:
(§3)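 A cell-based HTRF pERK assay: ten-point, threefold titrations beginning at 10 uM were applied for 3 hrs, with 0.2 uM Trametinib wells as the minimum control. Cells were lysed cold, and lysate was incubated with the antibody pair for 2 hrs before reading.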

Test [5] concerns KRas-mediated phosphorylation of ERK in MKN1 cells. The test is described as follows: Inhibition of KRas-mediated phosphorylation of ERK (Cisbio HTRF pERK), MKN1 cells. To be noted: Homo sapiens, MKN-1. It is filed as cell-based. Summed up:
as §1

The target of another test is T4, KRas^G12V (Homo sapiens, UniProt P01116, G12V).
T4 construct: Biotinylated KRas (corresponding to amino acids 1-169, produced at Accelegan Inc.); biotin (biotinylated); purchased Accelegan Inc
T4 sequence (P01116 1-169 isoform P01116-2 G12V): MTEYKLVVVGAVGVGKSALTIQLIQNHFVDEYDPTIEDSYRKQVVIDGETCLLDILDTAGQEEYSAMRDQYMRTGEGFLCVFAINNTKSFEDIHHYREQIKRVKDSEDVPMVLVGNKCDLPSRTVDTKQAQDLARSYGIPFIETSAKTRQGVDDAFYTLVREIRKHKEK
The test is described as follows: KRas binding assay (TR-FRET tracer displacement), KRas G12V.

Test [6] deals with KRas-mediated phosphorylation of ERK in H727 cells. The test is described as follows: Inhibition of KRas-mediated phosphorylation of ERK (Cisbio HTRF pERK), H727 cells. The format is cell-based. The settings on record: Homo sapiens, NCI-H727, H727 cells; HTRF pERK. Summed up: as §2
For test [7], the system named is KRas-mediated phosphorylation of ERK in H358 cells. The test is described as follows: Inhibition of KRas-mediated phosphorylation of ERK (Cisbio HTRF pERK), H358 cells. The format is cell-based. To be noted: Homo sapiens, NCI-H358, HTRF pERK. Summed up:
as §2

The next test concerns the target T5, KRas^WT (Homo sapiens, UniProt P01116).
T5 construct: Biotinylated KRas (corresponding to amino acids 1-169, produced at Accelegan Inc.); biotin (biotinylated); purchased Accelegan Inc
The test is described as follows: KRas binding assay (TR-FRET tracer displacement), KRas WT. The settings on record: TR-FRET tracer displacement, KRas WT.

The test system of test [8] is KRas-mediated phosphorylation of ERK in HCT116 cells. The test is described as follows: Inhibition of KRas-mediated phosphorylation of ERK (Cisbio HTRF pERK), HCT116 cells. It is filed as cell-based. The settings on record: Homo sapiens, HCT-116, HTRF pERK. Summed up:
as §3

T2 sequence (P01116 1-169 isoform P01116-2 G12C): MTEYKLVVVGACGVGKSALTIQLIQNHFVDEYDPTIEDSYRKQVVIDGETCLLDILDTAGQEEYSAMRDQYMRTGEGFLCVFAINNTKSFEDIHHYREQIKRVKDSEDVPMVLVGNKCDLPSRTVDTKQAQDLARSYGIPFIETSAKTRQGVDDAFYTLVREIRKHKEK
T5 sequence (P01116 1-169 isoform P01116-2): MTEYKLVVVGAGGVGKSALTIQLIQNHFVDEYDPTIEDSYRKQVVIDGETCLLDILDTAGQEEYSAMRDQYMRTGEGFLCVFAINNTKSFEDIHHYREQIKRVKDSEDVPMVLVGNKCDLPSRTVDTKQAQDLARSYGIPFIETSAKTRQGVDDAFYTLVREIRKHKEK
T3 sequence (P01116 1-169 isoform P01116-2 G12S): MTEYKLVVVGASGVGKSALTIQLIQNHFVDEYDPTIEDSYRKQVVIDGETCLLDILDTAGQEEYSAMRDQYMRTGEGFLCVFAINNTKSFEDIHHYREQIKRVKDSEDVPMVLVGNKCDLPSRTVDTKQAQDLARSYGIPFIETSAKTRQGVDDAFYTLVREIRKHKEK

Consider `CCc1c(F)ccc2cc(O)cc(-c3ncc4c(N5CCC[C@]6(C5)NC(=O)NC6=O)nc(OCC56CCCN5C/C(=C\F)C6)nc4c3F)c12` (stereo partly drawn) [Example 794, (5R)-7-(7-(8-ethyl-7-fluoro-3-hydroxynaphthalen-1-yl)-8-fluoro-2-(((Z)-2-(fluoromethylene)tetrahydro-1H-pyrrolizin-7a(5H)-yl)methoxy)pyrido[4,3-d]pyrimidin-4-yl)-1,3,7-triazaspiro[4.5]decane-2,4-dione], for which the IC50 is 37 nM in test [1]; below 2 nM at KRas^G12D; 32 nM in [2]; below 2 nM on KRas^G12C; 6 nM in [3]; below 2 nM on KRas^G12S. In addition, the IC50 in test [4] was 12 nM; in test [5] it was 1 nM; at KRas^G12V, below 2 nM; in test [6] it was 27 nM; in test [7] it was 5 nM; on KRas^WT it was below 2 nM. Further, the IC50 in test [8] was found to be 26 nM.
`CCc1c(F)ccc2cc(O)cc(-c3ncc4c(N5CCCn6nc(C(=O)N(C)C)cc6C5)nc(OCC56CCCN5C/C(=C\F)C6)nc4c3F)c12` (centres unmarked) [Example 795, (Z)-5-(7-(8-ethyl-7-fluoro-3-hydroxynaphthalen-1-yl)-8-fluoro-2-((2-(fluoromethylene)tetrahydro-1H-pyrrolizin-7a(5H)-yl)methoxy)pyrido[4,3-d]pyrimidin-4-yl)-N,N-dimethyl-5,6,7,8-tetrahydro-4H-pyrazolo[1,5-a][1,4]diazepine-2-carboxamide]: the IC50 is 4790 nM in [1]; below 2 nM on KRas^G12D; 2 nM in [2]; below 2 nM on KRas^G12C; 28 nM in [3]; below 2 nM at KRas^G12S. The IC50 in [4] was 41 nM; in [5], 4 nM; at KRas^G12V it was below 2 nM; in test [6] it was 11 nM; in [7], 4 nM; at KRas^WT it was below 2 nM. The compound also displayed an IC50 in test [8] of 130 nM.
As to `CCc1c(F)ccc2cc(O)cc(-c3ncc4c(N5C[C@@H]6C[C@H](C5)[C@H](O)C6)nc(OCC56CCCN5CC(=C(F)F)C6)nc4c3F)c12` (stereo partly drawn) [Example 798, (1R,5R,6R)-3-(2-((2-(difluoromethylene)tetrahydro-1H-pyrrolizin-7a(5H)-yl)methoxy)-7-(8-ethyl-7-fluoro-3-hydroxynaphthalen-1-yl)-8-fluoropyrido[4,3-d]pyrimidin-4-yl)-3-azabicyclo[3.2.1]octan-6-ol], the IC50 in [1] is 946 nM; at KRas^G12D, below 2 nM; in [2], 17 nM; at KRas^G12C, below 2 nM; in test [3], 4 nM; at KRas^G12S it was below 2 nM. The IC50 is 3 nM in [4]; 0.3 nM in test [5]; below 2 nM on KRas^G12V; 19 nM in [6]; 3 nM in [7]; below 2 nM on KRas^WT. Moreover, the IC50 in test [8] turned out to be 25 nM.
As to `C=C1CN2CC(=C)CC2(COc2nc(N3CCC[C@@](C)(O)C3)c3cnc(-c4cc(O)cc5ccc(F)c(CC)c45)c(F)c3n2)C1` [Example 799, (R)-1-(2-((2,6-dimethylenetetrahydro-1H-pyrrolizin-7a(5H)-yl)methoxy)-7-(8-ethyl-7-fluoro-3-hydroxynaphthalen-1-yl)-8-fluoropyrido[4,3-d]pyrimidin-4-yl)-3-methylpiperidin-3-ol], the IC50 is 988 nM in [1]; below 2 nM on KRas^G12D; 7 nM in test [2]; below 2 nM on KRas^G12C; 8 nM in test [3]; below 2 nM at KRas^G12S. Also, the IC50 in [4] is 9 nM; in [5] it was 0.9 nM; at KRas^G12V, below 2 nM; in test [6] it was 20 nM; in test [7] it was 4 nM; at KRas^WT, below 2 nM. Half-maximal inhibition in test [8] (IC50) required 30 nM.
With `C=C1CN2CCCC2(COc2nc(N3C[C@@H]4C[C@H](C3)[C@H](O)C4)c3cnc(-c4cc(O)cc5ccc(F)c(CC)c45)c(F)c3n2)C1` (stereo partly drawn) [Example 800, (1R,5R,6R)-3-(7-(8-ethyl-7-fluoro-3-hydroxynaphthalen-1-yl)-8-fluoro-2-((2-methylenetetrahydro-1H-pyrrolizin-7a(5H)-yl)methoxy)pyrido[4,3-d]pyrimidin-4-yl)-3-azabicyclo[3.2.1]octan-6-ol], the IC50 in test [1] is 587 nM; at KRas^G12D, below 2 nM; in [2], 6 nM; at KRas^G12C, below 2 nM; in [3] it was 3 nM; on KRas^G12S, below 2 nM. Also, the IC50 was 3 nM in test [4]; 0.3 nM in test [5]; below 2 nM at KRas^G12V; 3 nM in test [6]; 1 nM in [7]; below 2 nM at KRas^WT. In addition, inhibition in test [8] was half-maximal at 13 nM (IC50).
With `C#Cc1c(F)ccc2cc(O)cc(-c3ncc4c(N5CCC[C@@](C)(O)C5)nc(OC[C@]56CCCN5C/C(=C\F)C6)nc4c3F)c12` [Example 801, (3R)-1-(7-(8-ethynyl-7-fluoro-3-hydroxynaphthalen-1-yl)-8-fluoro-2-(((Z)-2-(fluoromethylene)tetrahydro-1H-pyrrolizin-7a(5H)-yl)methoxy)pyrido[4,3-d]pyrimidin-4-yl)-3-methylpiperidin-3-ol], the IC50 in test [1] is 117 nM; on KRas^G12D it was below 2 nM; in test [2] it was 3 nM; on KRas^G12C, below 2 nM; in test [3], 4 nM; at KRas^G12S it was below 2 nM. In addition, the IC50 is 7 nM in test [4]; 0.1 nM in test [5]; below 2 nM on KRas^G12V; 12 nM in [6]; 1 nM in test [7]; below 2 nM at KRas^WT. In test [8], this compound came in with an IC50 of 15 nM.
In the case of `CCc1c(F)ccc2cc(O)cc(-c3ncc4c(N5CC=CCC5)nc(OC[C@@]56CCCN5C[C@H](F)C6)nc4c3F)c12` [Example 921, 4-(4-(3,6-dihydropyridin-1(2H)-yl)-8-fluoro-2-(((2R,7aS)-2-fluorotetrahydro-1H-pyrrolizin-7a(5H)-yl)methoxy)pyrido[4,3-d]pyrimidin-7-yl)-5-ethyl-6-fluoronaphthalen-2-ol], the IC50 in test [1] was determined as 7630 nM; at KRas^G12D, 4 nM; in test [2] it was 92 nM; at KRas^G12C, 2 nM; in test [3], 75 nM; on KRas^G12S, 2 nM. The IC50 was 68 nM in test [4]; 0.4 nM in [5]; 2 nM at KRas^G12V; 86 nM in [6]; 33 nM in test [7]; 4 nM at KRas^WT. The same compound displayed an IC50 in test [8] of 309 nM.
For the compound `CCc1c(F)ccc2cc(O)cc(-c3ncc4c(N5C[C@@H]6C[C@H](C5)[C@H](O)C6)nc(OCC56CCCN5CC5(CC5)C6)nc4c3F)c12` (stereo partly drawn) [Example 931, (1R,5R,6R)-3-(2-((dihydro-1′H,3′H-spiro[cyclopropane-1,2′-pyrrolizin]-7a′ (5′H)-yl)methoxy)-7-(8-ethyl-7-fluoro-3-hydroxynaphthalen-1-yl)-8-fluoropyrido[4,3-d]pyrimidin-4-yl)-3-azabicyclo[3.2.1]octan-6-ol], the IC50 is 2280 nM in [1]; below 2 nM at KRas^G12D; 58 nM in [2]; below 2 nM on KRas^G12C; 15 nM in test [3]; below 2 nM at KRas^G12S. The IC50 is 17 nM in [4]; 0.9 nM in test [5]; below 2 nM on KRas^G12V; 59 nM in test [6]; 5 nM in test [7]; below 2 nM at KRas^WT. In [8], this compound gave an IC50 of 72 nM.

For orientation: IC50 means the concentration that inhibits the measured activity by half.
